According to the NIST ThermoML archive (doi:10.1007/s10765-007-0223-x):
Values joined by “and” are separate entries in the source; they are usually repeats but may differ in a detail not shown here. Equal entries are not always repeated.

What was measured:
[1] = xn = mol fraction of the nth substance listed; settings: 101 kPa, Liquid; for speed of sound: Single path-length method
[2] = 101 kPa, Liquid; for speed of sound: Single path-length method

COC(C)(C)C [2-methoxy-2-methylpropane] + CCc1ccccc1
[1], x1 = 1
Settings	mass density [kg/m3]	speed of sound [m/s]
288.15 K	744.861	1083.4
290.65 K	742.259	1071.6
293.15 K	739.654	1060
295.65 K	737.036	1048.5
298.15 K	734.406	1036.9
300.65 K	731.766	1025.4
303.15 K	729.112	1013.9
305.65 K	726.444	1002.4
308.15 K	723.763	990.99
310.65 K	721.069	979.62
313.15 K	718.357	968.16
315.65 K	715.636	956.8
318.15 K	712.897	945.54
320.65 K	710.141	934.24
323.15 K	707.381	922.97

CC(C)CC(C)(C)C [2,2,4-trimethylpentane]
[2]
Settings	mass density [kg/m3]	speed of sound [m/s]
288.15 K	695.948	1124.3
290.65 K	693.91	1113.8
293.15 K	691.861	1103.3
295.65 K	689.809	1092.7
298.15 K	687.749	1082.2
300.65 K	685.687	1071.7
303.15 K	683.618	1061.3
305.65 K	681.542	1050.9
308.15 K	679.459	1040.5
310.65 K	677.373	1030.2
313.15 K	675.278	1019.9
315.65 K	673.177	1009.7
318.15 K	671.069	999.53
320.65 K	668.954	989.37
323.15 K	666.832	979.25

CC(C)CC(C)(C)C [2,2,4-trimethylpentane] + COC(C)(C)C
[1], x2 = 0
Settings	mass density [kg/m3]	speed of sound [m/s]
288.15 K	695.948	1124.3
290.65 K	693.91	1113.8
293.15 K	691.861	1103.3
295.65 K	689.809	1092.7
298.15 K	687.749	1082.2
300.65 K	685.687	1071.7
303.15 K	683.618	1061.3
305.65 K	681.542	1050.9
308.15 K	679.459	1040.5
310.65 K	677.373	1030.2
313.15 K	675.278	1019.9
315.65 K	673.177	1009.7
318.15 K	671.069	999.53
320.65 K	668.954	989.37
323.15 K	666.832	979.25

COC(C)(C)C [2-methoxy-2-methylpropane]
[2]
Settings	mass density	speed of sound
288.15 K	744.861 kg/m3	1083.4 m/s and 1082.1 m/s
290.65 K	742.259 kg/m3	1071.6 m/s and 1070.6 m/s
293.15 K	739.654 kg/m3	1060 m/s and 1059.1 m/s
295.65 K	737.036 kg/m3	1048.5 m/s and 1047.8 m/s
298.15 K	734.406 kg/m3	1036.9 m/s and 1036.6 m/s
300.65 K	731.766 kg/m3	1025.4 m/s
301.65 K	732.643 kg/m3	1024.3 m/s
303.15 K	729.112 kg/m3 and 729.99 kg/m3	1013.9 m/s and 1014 m/s and 1012.8 m/s
305.65 K	727.325 kg/m3 and 726.444 kg/m3	1002.4 m/s and 1002.7 m/s and 1001.4 m/s
308.15 K	723.763 kg/m3 and 724.645 kg/m3	990.99 m/s and 991.34 m/s and 989.9 m/s
310.65 K	721.069 kg/m3 and 721.953 kg/m3	979.62 m/s and 980 m/s and 978.47 m/s
313.15 K	718.357 kg/m3 and 719.245 kg/m3	968.16 m/s and 968.63 m/s and 967.03 m/s
315.65 K	715.636 kg/m3 and 716.525 kg/m3	956.8 m/s and 957.31 m/s and 955.73 m/s
318.15 K	712.897 kg/m3 and 713.786 kg/m3	945.54 m/s and 946.03 m/s and 944.34 m/s
320.65 K	710.141 kg/m3 and 711.028 kg/m3	934.24 m/s and 934.76 m/s and 933.01 m/s
323.15 K	707.381 kg/m3 and 708.28 kg/m3	922.97 m/s and 923.46 m/s and 921.93 m/s

c1ccccc1 [benzene] + COC(C)(C)C
[1], x2 = 0
Settings	mass density [kg/m3]	speed of sound [m/s]
288.15 K	884.183	1345.5
290.65 K	881.521	1333.4
293.15 K	878.856	1321.6
295.65 K	876.19	1309.9
298.15 K	873.52	1298.3
300.65 K	870.847	1286.7
303.15 K	868.172	1275.1
305.65 K	865.49	1263.6
308.15 K	862.805	1252.1
310.65 K	860.118	1240.7
313.15 K	857.425	1229.3
315.65 K	854.73	1217.9
318.15 K	852.032	1206.7
320.65 K	849.331	1195.5
323.15 K	846.641	1184.6
